Patent EP3498266A1, “FORMULATIONS OF COPANLISIB” (priority 2017, dated 2019)
Where two headings read alike, the source gives them in different places.

Columns and labels:
[1] = tested on: indolent B-cell non-Hodgkin lymphoma
Procedure: Methods: Patients with indolent B-cell non-Hodgkin lymphoma (4 subtypes: follicular (FL), marginal zone (MZL), small lymphocytic (SLL) and lymphoplasmacytoid/Waldenström macroglobulinemia (LPL-WM)) and relapsed after, or refractory to, ≥2 prior lines of treatment were eligible. […] Copanlisib (60 mg, I.V.) was intermittently administered on days 1, 8 and 15 of a 28-day cycle.

[2] = Hydrolytic (chemical) stability in aqueous solution, HPLC; type: physicochemical
Procedure: The different aqueous solutions (0.05 % copanlisib; after addition of 50 % 2-propanol, [buffer solution filtered with 0.5µm membrane filter]) were stored at 25°C and 70°C for 24 h and one week. An analytical HPLC-method has been developed to determine assay and organic impurities of copanlisib as well as degradation products. Table 2 : Results on hydrolytic stability of copanlisib

[3] = Solubility of copanlisib dihydrochloride, flask method, HPLC; type: physicochemical; conditions: for Descriptive term: according to Ph. Eur./USP; for solubility at 19 h: 25 °C, thermodynamic from solid
Source text: The suspension was centrifuged before HPLC analysis.

[4] = full analysis set, 142 patients

COc1c(OCCCN2CCOCC2)ccc2c1N=C(NC(=O)c1cnc(N)nc1)N1CCN=C21 [copanlisib, 2-amino-N-[7-methoxy-8-(3-morpholin-4-ylpropoxy)-2,3-dihydroimidazo[1,2-c]quinazolin-5-yl]pyrimidine-5-carboxamide]
CR ([1]; FL subset): 14.4% | ORR ([1]; FL subset): 58.7% | PR ([1]; FL subset): 44.2% | estimated Kaplan-Meier (KM) median duration of response ([1]; FL subset (range 0-687)): 370 days | CR ([1]; MZL subset): 8.7% | ORR ([1]; MZL subset): 69.6% | PR ([1]; MZL subset): 60.9% | AEs of interest: colitis ([1]; all grade): 0.7% | AEs of interest: diarrhea ([1]; all grade): 18% | AEs of interest: lung infection ([1]; all grade): 14% | AEs of interest: neutropenia ([1]; all grade): 25% | AEs of interest: pneumonitis ([1]; all grade): 7% | treatment-related adverse events: hypertension ([1]; all grade): 29% | treatment-related adverse events: transient hyperglycemia ([1]; all grade, 60 mg I.V. days 1, 8, 15 of 28-day cycle): 49% | Laboratory toxicities: alanine aminotransferase ([1]; all-grade): 23% | Laboratory toxicities: aspartate aminotransferase ([1]; all-grade): 28% | Median overall survival ([1]; at the time of primary analysis): had not yet been reached | complete response (CR) ([1]; full analysis set): 12.0% | estimated Kaplan-Meier (KM) median duration of response ([1]; full analysis set (range 0-687)): 687 days | colonic perforations [1, 4]: No colonic perforations occurred | deaths [1, 4]: 6 | non-fatal opportunistic infections [1, 4]: two | AEs of interest: colitis ([1]; human, in vivo): 0.7% | AEs of interest: diarrhea ([1]; human, in vivo): 4% | AEs of interest: lung infection ([1]; human, in vivo): 11% | AEs of interest: neutropenia ([1]; human, in vivo): 19% | AEs of interest: pneumonitis ([1]; human, in vivo): 1.4% | Laboratory toxicities: alanine aminotransferase ([1]; human, in vivo): 19% | Laboratory toxicities: aspartate aminotransferase ([1]; human, in vivo): 25% | treatment-related adverse events: hypertension ([1]; human, in vivo): 23% | treatment-related adverse events: transient hyperglycemia ([1]; human, in vivo): 40% | deaths attributed to copanlisib ([1]; lung infection, respiratory failure, and a thromboembolic event): 3 | KM-estimate of median PFS ([1]; range 0-736): 340 days | Appearance ([2]; 0.1M HCl, 1 week, 25°C): slightly colored solution | Appearance ([2]; 0.1M HCl, 1 week, 70°C): slightly colored solution | Appearance ([2]; 0.1M HCl, 24 h, 25°C): slightly colored solution | Appearance ([2]; 0.1M HCl, 24h, 70°C): slightly colored solution | Appearance ([2]; 0.1M HCl, Initial): slightly colored solution | Appearance ([2]; 0.1 M NaOH, 1week, 25°C): slightly colored solution | Appearance ([2]; 0.1 M NaOH, 1week, 70°C): slightly colored solution | Appearance ([2]; 0.1 M NaOH, 24 h, 25°C): slightly colored solution | Appearance ([2]; 0.1 M NaOH, 24h, 70°C): slightly colored solution | Appearance ([2]; 0.1 M NaOH, Initial): slightly colored solution | Appearance ([2]; Buffer pH 7, 1 week, 25°C): slightly colored turbid solution | Appearance ([2]; Buffer pH 7, 1 week, 70°C): slightly colored solution | Appearance ([2]; Buffer pH 7, 24 h, 25°C): slightly colored turbid solution | Appearance ([2]; Buffer pH 7, 24 h, 70°C): slightly colored solution | Appearance ([2]; Buffer pH 7, Initial): slightly colored turbid solution | Appearance ([2]; Water, 1 week, 25°C): slightly colored solution | Appearance ([2]; Water, 1 week, 70°C): slightly colored solution | Appearance ([2]; Water, 24 h, 25°C): slightly colored solution | Appearance ([2]; Water, 24h, 70°C): slightly colored solution | Appearance ([2]; Water, Initial): slightly colored solution

COc1c(OCCCN2CCOCC2)ccc2c1N=C(NC(=O)c1cnc(N)nc1)N1CCN=C21.Cl.Cl [copanlisib dihydrochloride, 2-amino-N-[7-methoxy-8-(3-morpholin-4-ylpropoxy)-2,3-dihydroimidazo[1,2-c]quinazolin-5-yl]pyrimidine-5-carboxamide dihydrochloride]
Descriptive term ([3]; 0.1 M Hydrochloric acid): freely soluble | solubility at 19 h ([3]; 0.1 M hydrochloric acid, simulated gastric fluid): 190 mg/mL | solubility at 19 h ([3]; aqueous buffer, Buffer (citrate) pH 3): 250 mg/mL | solubility at 19 h ([3]; aqueous buffer, Buffer (citrate) pH 4): 25 mg/mL | solubility at 19 h ([3]; aqueous buffer, Buffer (citrate) pH 5): 0.62 mg/mL | solubility at 19 h ([3]; aqueous buffer, Buffer (phosphate) pH 1): 510 mg/mL | solubility at 19 h ([3]; aqueous buffer, Buffer (phosphate) pH 2): 250 mg/mL | solubility at 19 h ([3]; aqueous buffer, Buffer (phosphate) pH 6): 0.001 mg/mL | Descriptive term ([3]; Buffer (citrate) pH 3): freely soluble | Descriptive term ([3]; Buffer (citrate) pH 4): soluble | Descriptive term ([3]; Buffer (citrate) pH 5): very slightly soluble | Descriptive term ([3]; Buffer (phosphate) pH 1): freely soluble | Descriptive term ([3]; Buffer (phosphate) pH 2): freely soluble | Descriptive term ([3]; Buffer (phosphate) pH 6): practically insoluble | Descriptive term ([3]; Buffer (phosphate) pH 7): practically insoluble | Descriptive term ([3]; Water): freely soluble | solubility at 19 h ([3]; water): 230 mg/mL
